# Assay results reported in PubChem BioAssay (NCI).
#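 Compound exposure: 48 hours, 5 concentrations, 96-well plates. GI50 = concentration required for 50% inhibition of growth. TGI: concentration producing complete growth inhibition.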
# Key:
# Test in all cases: DTP human tumour cell line panel, 48 h
# 786-0 renal = test system: 786-0 renal
# A498 renal = test system: A498 renal
# A549 NSCLC = test system: A549 NSCLC
# ACHN renal = test system: ACHN renal
# BT-549 breast = test system: BT-549 breast
# CAKI-1 renal = test system: CAKI-1 renal
# CCRF-CEM leukemia = test system: CCRF-CEM leukemia
# COLO 205 colon = test system: COLO 205 colon
# DU-145 prostate = test system: DU-145 prostate
# EKVX NSCLC = test system: EKVX NSCLC
# HCC-2998 colon = test system: HCC-2998 colon
# HCT-116 colon = test system: HCT-116 colon
# HCT-15 colon = test system: HCT-15 colon
# HL-60(TB) leukemia = test system: HL-60(TB) leukemia
# HOP-62 NSCLC = test system: HOP-62 NSCLC
# HOP-92 NSCLC = test system: HOP-92 NSCLC
# HS 578T breast = test system: HS 578T breast
# HT29 colon = test system: HT29 colon
# IGROV1 ovarian = test system: IGROV1 ovarian
# K-562 leukemia = test system: K-562 leukemia
# KM12 colon = test system: KM12 colon
# LOX IMVI melanoma = test system: LOX IMVI melanoma
# M14 melanoma = test system: M14 melanoma
# MALME-3M melanoma = test system: MALME-3M melanoma
# MCF7 breast = test system: MCF7 breast
# MDA-MB-231 breast = test system: MDA-MB-231 breast
# MDA-MB-435 = test system: MDA-MB-435
# MOLT-4 leukemia = test system: MOLT-4 leukemia
# NCI-H226 lung = test system: NCI-H226 lung
# NCI-H23 lung = test system: NCI-H23 lung
# NCI-H460 lung = test system: NCI-H460 lung
# NCI-H522 lung = test system: NCI-H522 lung
# NCI/ADR-RES ovarian = test system: NCI/ADR-RES ovarian
# OVCAR-3 ovarian = test system: OVCAR-3 ovarian
# OVCAR-4 ovarian = test system: OVCAR-4 ovarian
# OVCAR-5 ovarian = test system: OVCAR-5 ovarian
# OVCAR-8 ovarian = test system: OVCAR-8 ovarian
# PC-3 prostate = test system: PC-3 prostate
# RPMI-8226 leukemia = test system: RPMI-8226 leukemia
# RXF 393 renal = test system: RXF 393 renal
# SF-268 CNS = test system: SF-268 CNS
# SF-295 CNS = test system: SF-295 CNS
# SF-539 CNS = test system: SF-539 CNS
# SK-MEL-2 melanoma = test system: SK-MEL-2 melanoma
# SK-MEL-28 melanoma = test system: SK-MEL-28 melanoma
# SK-MEL-5 melanoma = test system: SK-MEL-5 melanoma
# SK-OV-3 ovarian = test system: SK-OV-3 ovarian
# SN12C renal = test system: SN12C renal
# SNB-19 CNS = test system: SNB-19 CNS
# SNB-75 CNS = test system: SNB-75 CNS
# SR leukemia = test system: SR leukemia
# SW-620 colon = test system: SW-620 colon
# T-47D breast = test system: T-47D breast
# TK-10 renal = test system: TK-10 renal
# U251 CNS = test system: U251 CNS
# UACC-257 melanoma = test system: UACC-257 melanoma
# UACC-62 melanoma = test system: UACC-62 melanoma
# UO-31 renal = test system: UO-31 renal
structure (smiles),measurement,setting,value
CCOC(=O)/C=C1/SC(N2CCCCC2)C(=O)N1CC (stereo unspecified),GI50,786-0 renal,> 100 µM
same,TGI,786-0 renal,> 100 µM
same,GI50,A498 renal,> 100 µM
same,TGI,A498 renal,> 100 µM
same,GI50,A549 NSCLC,> 100 µM
same,TGI,A549 NSCLC,> 100 µM
same,GI50,ACHN renal,> 100 µM
same,TGI,ACHN renal,> 100 µM
same,GI50,BT-549 breast,> 100 µM
same,TGI,BT-549 breast,> 100 µM
same,GI50,CAKI-1 renal,> 100 µM
same,TGI,CAKI-1 renal,> 100 µM
same,GI50,CCRF-CEM leukemia,> 100 µM
same,TGI,CCRF-CEM leukemia,> 100 µM
same,GI50,COLO 205 colon,> 100 µM
same,TGI,COLO 205 colon,> 100 µM
same,GI50,DU-145 prostate,> 100 µM
same,TGI,DU-145 prostate,> 100 µM
same,GI50,EKVX NSCLC,> 100 µM
same,TGI,EKVX NSCLC,> 100 µM
same,GI50,HCC-2998 colon,> 100 µM
same,TGI,HCC-2998 colon,> 100 µM
same,GI50,HCT-116 colon,> 100 µM
same,TGI,HCT-116 colon,> 100 µM
same,GI50,HCT-15 colon,> 100 µM
same,TGI,HCT-15 colon,> 100 µM
same,GI50,HL-60(TB) leukemia,> 100 µM
same,TGI,HL-60(TB) leukemia,> 100 µM
same,GI50,HOP-62 NSCLC,> 100 µM
same,TGI,HOP-62 NSCLC,> 100 µM
same,GI50,HOP-92 NSCLC,> 100 µM
same,TGI,HOP-92 NSCLC,> 100 µM
same,GI50,HS 578T breast,> 100 µM
same,TGI,HS 578T breast,> 100 µM
same,GI50,HT29 colon,> 100 µM
same,TGI,HT29 colon,> 100 µM
same,GI50,IGROV1 ovarian,> 100 µM
same,TGI,IGROV1 ovarian,> 100 µM
same,GI50,K-562 leukemia,> 100 µM
same,TGI,K-562 leukemia,> 100 µM
same,GI50,KM12 colon,> 100 µM
same,TGI,KM12 colon,> 100 µM
same,GI50,LOX IMVI melanoma,> 100 µM
same,TGI,LOX IMVI melanoma,> 100 µM
same,GI50,M14 melanoma,> 100 µM
same,TGI,M14 melanoma,> 100 µM
same,GI50,MALME-3M melanoma,> 100 µM
same,TGI,MALME-3M melanoma,> 100 µM
same,GI50,MCF7 breast,> 100 µM
same,TGI,MCF7 breast,> 100 µM
same,GI50,MDA-MB-231 breast,> 100 µM
same,TGI,MDA-MB-231 breast,> 100 µM
same,GI50,MDA-MB-435,> 100 µM
same,TGI,MDA-MB-435,> 100 µM
same,GI50,MOLT-4 leukemia,> 100 µM
same,TGI,MOLT-4 leukemia,> 100 µM
same,GI50,NCI-H226 lung,> 100 µM
same,TGI,NCI-H226 lung,> 100 µM
same,GI50,NCI-H23 lung,> 100 µM
same,TGI,NCI-H23 lung,> 100 µM
same,GI50,NCI-H460 lung,> 100 µM
same,TGI,NCI-H460 lung,> 100 µM
same,GI50,NCI-H522 lung,> 100 µM
same,TGI,NCI-H522 lung,> 100 µM
same,GI50,NCI/ADR-RES ovarian,> 100 µM
same,TGI,NCI/ADR-RES ovarian,> 100 µM
same,GI50,OVCAR-3 ovarian,> 100 µM
same,TGI,OVCAR-3 ovarian,> 100 µM
same,GI50,OVCAR-4 ovarian,> 100 µM
same,TGI,OVCAR-4 ovarian,> 100 µM
same,GI50,OVCAR-5 ovarian,> 100 µM
same,TGI,OVCAR-5 ovarian,> 100 µM
same,GI50,OVCAR-8 ovarian,> 100 µM
same,TGI,OVCAR-8 ovarian,> 100 µM
same,GI50,PC-3 prostate,> 100 µM
same,TGI,PC-3 prostate,> 100 µM
same,GI50,RPMI-8226 leukemia,> 100 µM
same,TGI,RPMI-8226 leukemia,> 100 µM
same,GI50,RXF 393 renal,> 100 µM
same,TGI,RXF 393 renal,> 100 µM
same,GI50,SF-268 CNS,> 100 µM
same,TGI,SF-268 CNS,> 100 µM
same,GI50,SF-295 CNS,> 100 µM
same,TGI,SF-295 CNS,> 100 µM
same,GI50,SF-539 CNS,> 100 µM
same,TGI,SF-539 CNS,> 100 µM
same,GI50,SK-MEL-2 melanoma,> 100 µM
same,TGI,SK-MEL-2 melanoma,> 100 µM
same,GI50,SK-MEL-28 melanoma,> 100 µM
same,TGI,SK-MEL-28 melanoma,> 100 µM
same,GI50,SK-MEL-5 melanoma,> 100 µM
same,TGI,SK-MEL-5 melanoma,> 100 µM
same,GI50,SK-OV-3 ovarian,> 100 µM
same,TGI,SK-OV-3 ovarian,> 100 µM
same,GI50,SN12C renal,> 100 µM
same,TGI,SN12C renal,> 100 µM
same,GI50,SNB-19 CNS,> 100 µM
same,TGI,SNB-19 CNS,> 100 µM
same,GI50,SNB-75 CNS,> 100 µM
same,TGI,SNB-75 CNS,> 100 µM
same,GI50,SR leukemia,> 100 µM
same,TGI,SR leukemia,> 100 µM
same,GI50,SW-620 colon,> 100 µM
same,TGI,SW-620 colon,> 100 µM
same,GI50,T-47D breast,> 100 µM
same,TGI,T-47D breast,> 100 µM
same,GI50,TK-10 renal,> 100 µM
same,TGI,TK-10 renal,> 100 µM
same,GI50,U251 CNS,> 100 µM
same,TGI,U251 CNS,> 100 µM
same,GI50,UACC-257 melanoma,> 100 µM
same,TGI,UACC-257 melanoma,> 100 µM
same,GI50,UACC-62 melanoma,> 100 µM
same,TGI,UACC-62 melanoma,> 100 µM
same,GI50,UO-31 renal,> 100 µM
same,TGI,UO-31 renal,> 100 µM
